Assay results reported in ChEMBL document CHEMBL5465560, “Selectivity Literature for EUbOPEN Chemogenomic Library” (2024).

Experiments:
[1] = molecular target: Ribosomal protein S6 kinase alpha-3 (Homo sapiens, UniProt P51812); experiment: Selectivity interaction (KinomeScan (DiscoverX)) EUB0000229b RPS6KA3; details: at 10 µM
[2] = molecular target: T1, Mitogen-activated protein kinase kinase kinase 19 (Homo sapiens) (UniProt Q56UN5); experiment: Selectivity interaction (Kinase panel (Z-LYTE Assay)) EUB0001632a MAP3K19; details: at 10 µM
T1 sequence (whole entry): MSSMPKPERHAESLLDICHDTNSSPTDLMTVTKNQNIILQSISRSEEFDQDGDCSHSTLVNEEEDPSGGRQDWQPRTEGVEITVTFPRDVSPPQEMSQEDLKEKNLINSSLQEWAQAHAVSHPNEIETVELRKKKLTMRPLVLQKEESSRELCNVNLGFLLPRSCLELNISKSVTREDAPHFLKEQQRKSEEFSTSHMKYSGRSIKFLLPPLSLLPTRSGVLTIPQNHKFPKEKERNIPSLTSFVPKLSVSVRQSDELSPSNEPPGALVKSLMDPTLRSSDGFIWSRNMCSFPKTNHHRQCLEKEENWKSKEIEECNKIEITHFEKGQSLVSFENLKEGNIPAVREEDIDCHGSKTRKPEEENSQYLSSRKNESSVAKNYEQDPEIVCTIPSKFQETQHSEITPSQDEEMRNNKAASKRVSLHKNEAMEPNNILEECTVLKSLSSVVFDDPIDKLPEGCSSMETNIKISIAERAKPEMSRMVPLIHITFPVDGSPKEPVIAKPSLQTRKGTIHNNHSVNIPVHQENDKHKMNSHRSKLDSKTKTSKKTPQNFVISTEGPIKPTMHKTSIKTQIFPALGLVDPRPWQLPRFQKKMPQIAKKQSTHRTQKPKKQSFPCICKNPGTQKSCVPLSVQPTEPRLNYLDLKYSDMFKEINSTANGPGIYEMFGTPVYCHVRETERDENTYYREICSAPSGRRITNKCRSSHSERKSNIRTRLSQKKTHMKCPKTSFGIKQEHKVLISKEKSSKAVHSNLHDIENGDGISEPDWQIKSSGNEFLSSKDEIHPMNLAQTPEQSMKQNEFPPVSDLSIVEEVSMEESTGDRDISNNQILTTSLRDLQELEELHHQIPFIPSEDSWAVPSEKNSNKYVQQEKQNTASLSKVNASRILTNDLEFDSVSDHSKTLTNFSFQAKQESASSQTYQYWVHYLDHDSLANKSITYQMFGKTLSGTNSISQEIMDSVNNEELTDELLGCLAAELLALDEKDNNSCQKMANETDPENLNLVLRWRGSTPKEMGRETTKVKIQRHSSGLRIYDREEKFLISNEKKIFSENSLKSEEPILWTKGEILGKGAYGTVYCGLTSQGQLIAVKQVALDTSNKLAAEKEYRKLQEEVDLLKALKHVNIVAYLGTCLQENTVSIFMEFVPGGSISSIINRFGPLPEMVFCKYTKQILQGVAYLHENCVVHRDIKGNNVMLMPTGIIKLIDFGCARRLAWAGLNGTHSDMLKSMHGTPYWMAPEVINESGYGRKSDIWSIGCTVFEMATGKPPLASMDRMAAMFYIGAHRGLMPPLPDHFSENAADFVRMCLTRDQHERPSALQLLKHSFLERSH

[3] = molecular target: T2, Dual specificity mitogen-activated protein kinase kinase 6 (Homo sapiens) (UniProt P52564); experiment: Selectivity interaction (Kinase panel (Invitrogen)) EUB0000639a MAP2K6; details: at 200 nM
T2 sequence (whole entry): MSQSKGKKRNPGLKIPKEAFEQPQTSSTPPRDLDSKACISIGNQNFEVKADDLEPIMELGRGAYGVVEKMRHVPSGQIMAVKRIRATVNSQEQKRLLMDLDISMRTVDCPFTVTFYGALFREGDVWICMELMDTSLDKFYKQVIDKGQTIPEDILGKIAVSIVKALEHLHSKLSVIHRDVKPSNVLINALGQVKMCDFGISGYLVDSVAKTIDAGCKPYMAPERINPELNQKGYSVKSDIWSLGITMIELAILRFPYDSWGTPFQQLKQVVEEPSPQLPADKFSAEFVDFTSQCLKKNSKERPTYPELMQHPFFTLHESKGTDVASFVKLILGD

[4] = molecular target: T3, Tyrosine-protein kinase ZAP-70 (Homo sapiens) (UniProt P43403); experiment: Selectivity interaction (KinomeScan (DiscoverX)) EUB0001049a ZAP70; details: at 1 µM
T3 sequence (whole entry): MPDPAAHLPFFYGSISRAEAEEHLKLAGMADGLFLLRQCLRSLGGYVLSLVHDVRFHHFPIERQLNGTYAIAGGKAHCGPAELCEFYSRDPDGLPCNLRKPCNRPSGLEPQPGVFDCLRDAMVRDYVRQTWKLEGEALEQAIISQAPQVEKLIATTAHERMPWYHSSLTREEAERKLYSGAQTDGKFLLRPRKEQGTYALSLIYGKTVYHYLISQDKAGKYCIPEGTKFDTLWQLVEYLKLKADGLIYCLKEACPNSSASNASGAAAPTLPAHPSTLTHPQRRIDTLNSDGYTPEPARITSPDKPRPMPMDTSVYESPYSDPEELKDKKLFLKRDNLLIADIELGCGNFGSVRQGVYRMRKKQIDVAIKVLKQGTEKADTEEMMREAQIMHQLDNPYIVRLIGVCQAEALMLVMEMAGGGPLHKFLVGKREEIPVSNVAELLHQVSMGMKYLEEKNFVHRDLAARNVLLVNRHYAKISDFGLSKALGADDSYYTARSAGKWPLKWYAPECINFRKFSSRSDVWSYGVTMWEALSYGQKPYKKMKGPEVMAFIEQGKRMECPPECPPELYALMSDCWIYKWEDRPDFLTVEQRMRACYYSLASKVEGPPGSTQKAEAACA

[5] = molecular target: T4, Mitogen-activated protein kinase 8 (Homo sapiens, UniProt P45983); experiment: Selectivity interaction (KinomeScan (DiscoverX)) EUB0001049a MAPK8; details: at 1 µM
T4 sequence (P45983 whole entry): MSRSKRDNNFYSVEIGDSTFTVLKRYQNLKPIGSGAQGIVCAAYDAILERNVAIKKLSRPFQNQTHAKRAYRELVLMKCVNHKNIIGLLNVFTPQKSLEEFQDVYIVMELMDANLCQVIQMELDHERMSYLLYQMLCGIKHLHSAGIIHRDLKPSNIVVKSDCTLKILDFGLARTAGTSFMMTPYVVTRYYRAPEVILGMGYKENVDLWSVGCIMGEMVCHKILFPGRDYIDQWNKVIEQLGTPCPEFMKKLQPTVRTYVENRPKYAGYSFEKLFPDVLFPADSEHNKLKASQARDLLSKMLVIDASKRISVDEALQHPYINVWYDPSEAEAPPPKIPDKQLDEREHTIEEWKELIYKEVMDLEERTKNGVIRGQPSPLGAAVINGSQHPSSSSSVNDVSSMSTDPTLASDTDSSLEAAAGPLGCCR

[6] = molecular target: T4, Mitogen-activated protein kinase 8; experiment: Selectivity interaction (KinomeScan (DiscoverX)) EUB0000695a MAPK8; details: at 100 nM
[7] = molecular target: T3, Tyrosine-protein kinase ZAP-70 (Homo sapiens); experiment: Selectivity interaction (KinomeScan (DiscoverX)) EUB0001619a ZAP70; details: at 1 µM

Chain of Ribosomal protein S6 kinase alpha-3 (P51812 whole entry): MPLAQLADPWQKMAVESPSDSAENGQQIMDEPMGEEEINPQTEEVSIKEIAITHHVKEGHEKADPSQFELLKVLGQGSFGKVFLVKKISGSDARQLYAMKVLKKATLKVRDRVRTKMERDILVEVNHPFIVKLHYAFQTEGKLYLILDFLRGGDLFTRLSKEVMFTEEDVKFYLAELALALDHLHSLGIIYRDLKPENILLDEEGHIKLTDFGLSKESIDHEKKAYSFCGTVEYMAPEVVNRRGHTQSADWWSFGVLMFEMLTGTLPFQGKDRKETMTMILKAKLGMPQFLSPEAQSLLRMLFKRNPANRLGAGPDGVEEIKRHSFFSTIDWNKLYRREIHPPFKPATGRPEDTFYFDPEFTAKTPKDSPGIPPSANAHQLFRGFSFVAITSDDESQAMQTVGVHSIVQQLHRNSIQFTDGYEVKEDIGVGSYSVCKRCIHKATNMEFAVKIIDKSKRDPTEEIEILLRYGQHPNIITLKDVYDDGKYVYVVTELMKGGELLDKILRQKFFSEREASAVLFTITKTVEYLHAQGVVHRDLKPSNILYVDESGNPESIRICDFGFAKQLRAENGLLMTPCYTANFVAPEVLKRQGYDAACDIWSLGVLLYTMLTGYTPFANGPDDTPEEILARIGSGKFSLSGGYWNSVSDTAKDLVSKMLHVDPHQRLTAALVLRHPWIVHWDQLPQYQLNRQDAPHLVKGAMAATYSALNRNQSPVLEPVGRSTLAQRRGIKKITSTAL

For `COc1cc(N(C)c2ccnc3ccc(C(F)(F)F)cc23)cc(OC)c1OC`, the % binding [1] was 71%.

`Cn1cc(-n2cnc3c(NCc4nc5cc(Cl)c(Cl)cc5[nH]4)nc(N4CCOCC4)nc32)cn1` gave a % of control [2] of -3.06%.

Work on `CC[C@@H]1[C@H](F)C(=O)N[C@@H]1COc1nccc2cc(C(N)=O)c(OC)cc12` [ZIMLOVISERTIB] yielded a % of inhibition [3] of 14.8%.

With `COc1cc(Nc2nc(C)cc(-c3cnn4nc(OC)ccc34)n2)cc(C(F)(F)F)c1` the % of control [4] was 95% and the % of control [5] was 88%.

With `Cc1cc(F)c(C(=O)Nc2cccc(-c3nncn3C(C)C)n2)cc1-n1cnc(C2CC2)c1` the % of control [6] was 72%.

`N#Cc1cccc(-c2c[nH]c3ncnc(N4CCOCC4)c23)c1` gave a % of control [7] of 96%.
